{"source": "patent US20250057751A1", "about": "“PEPTIDE HAVING ACTIVITY OF IMPROVING STATE OF SKIN, AND USE THEREOF” (CAREGEN CO., LTD., priority 2021, published 2025)", "key": {"HaCaT cells [1]": {"tested_on": "HaCaT cells", "test": "Inhibitory effect on apoptosis of skin cells induced by ultraviolet rays (survival rate, SRB)", "format": "cell-based, human", "settings": "15m J/cm2 ultraviolet rays, 50 μM or 100 μM peptide, 72 hours, FIG. 6B", "description": "(§1) In this example, the aim was to confirm the effect of the peptide according to an example on the inhibition of apoptosis or cell recovery of skin cells induced by ultraviolet rays, by evaluating the change in survival rate of skin cells whose apoptosis was induced by ultraviolet irradiation.\n(§2) Specifically, NIH3T3 cells or HaCaT cells were seeded in a 96-well plate at a density of 1×10^4 cells/well and cultured for 24 hours. The cells were then washed once with serum-free DMEM media, the culture medium was replaced with serum-free DMEM media, and 50 μM or 100 μM of the peptide consisting of the amino acid sequence of SEQ ID NO: 1 was dispensed to the culture medium. The culture medium dispensed with the peptide was cultured in a CO2 incubator at 37° C. for 1 hour, transferred to an e-tube, mixed with 100 ul of PBS, and dispensed into a well plate. Afterwards, using a UV irradiator (VILBER LOURMAT, France), 6 J/cm2 ultraviolet rays were irradiated to NIH3T3 cells, and 15m J/cm2 ultraviolet rays were irradiated to HaCaT cells. The PBS in the well plate was then removed, 900 μL of the culture medium in which the peptides were dispensed was added, and the plate was cultured in a CO2 incubator at 37° C. for 72 hours. […] The dried culture was then dissolved in 20 mM Tris buffer solution and the absorbance at 560 nm was measured using a microplate reader (Molecular Devices, USA). […]"}, "NIH3T3 cells [2]": {"tested_on": "NIH3T3 cells", "test": "Proliferation promoting effect on skin cells (SRB staining, absorbance at 560 nm)", "format": "cell-based, mouse", "settings": "50 μM or 100 μM peptide, 72 hours, serum-free DMEM, FIG. 1A", "description": "(§3) In this example, the aim was to confirm the effect of a peptide according to an example on proliferation of skin cells, by evaluating changes in survival rate of NIH3T3 cells, which are mouse fibroblasts, or HaCaT cells, which are human keratinocytes.\n(§4) Specifically, NIH3T3 cells or HaCaT cells were seeded in a 96-well plate at a density of 5×10^3 cells/well and cultured for 24 hours. The cells were then washed once with serum-free DMEM media, and the culture medium was replaced with serum-free DMEM media. Then, 50 μM or 100 μM of the peptide consisting of the amino acid sequence of SEQ ID NO: 1 was dispensed into the medium, and cultured in a CO2 incubator at 37° C. for 72 hours. The culture was then washed twice with PBS and treated with 4% paraformaldehyde (PFA) solution for 15 minutes to fix the cultured cells. The culture was then washed twice with distilled water, treated with SRB solution for 1 hour to stain the cells, washed with 1% acetic acid solution, and dried. The dried culture was then dissolved in 20 mM Tris buffer solution and the absorbance at 560 nm was measured using a microplate reader (Molecular Devices, USA). In this example, the untreated group was used as the control group, and the group to which insulin-like growth factor was added (IGF) was used as the positive control group."}, "HaCaT cells [3]": {"tested_on": "HaCaT cells", "test": "Proliferation promoting effect on skin cells (SRB staining, absorbance at 560 nm)", "format": "cell-based, human", "settings": "50 μM or 100 μM peptide, 72 hours, serum-free DMEM, FIG. 1B", "description": "as §3, §4"}, "elastin": {"tested_on": "elastin", "test": "Expression of extracellular matrix constituent factor in NIH3T3 cells (RT-PCR)", "format": "cell-based, mouse", "settings": "50 μM or 100 μM peptide, 24 hours, FIG. 2, FIG. 3C", "description": "(§5) In this example, the aim was to confirm the effect of the peptide according to an example on improving endogenous skin aging, including improvement of wrinkles and enhancement of elasticity, etc., by evaluating the expression levels of collagen type 1 (Col1a1), fibronectin, or elastin, which are known components of the dermis.\n(§6) Specifically, NIH3T3 cells were seeded in a 6-well plate at a density of 3×10^5 cells/well and cultured for 24 hours. The cells were then washed once with serum-free DMEM media, and the culture medium was replaced with serum-free DMEM media. Thereafter, 50 μM or 100 μM of the peptide consisting of the amino acid sequence of SEQ ID NO: 1 was dispensed into the medium, and cultured in a CO2 incubator at 37° C. for 24 hours. The culture was then washed twice with PBS, and RNA was isolated from the culture using easy blue (iNtRON, Korea). Using an RT kit (Enzynomics, Korea), 1 μg of the isolated RNA was reverse transcribed to synthesize the respective cDNA. Polymerase chain reaction (PCR) was then performed using the cDNAs and primers Col1a1, fibronectin, and elastin. Meanwhile, the untreated group was used as the control group, and the group to which TGF-β1 was added (TGF-β1) was used as the positive control group, the nucleotide sequences of the primers used in this example are shown in Table 2 below."}, "fibronectin": {"tested_on": "fibronectin", "test": "Expression of extracellular matrix constituent factor in NIH3T3 cells (RT-PCR)", "format": "cell-based, mouse", "settings": "50 μM or 100 μM peptide, 24 hours, FIG. 2, FIG. 3B", "description": "as §5, §6"}, "collagen type 1 (Col1a1)": {"tested_on": "collagen type 1 (Col1a1)", "test": "Expression of extracellular matrix constituent factor in NIH3T3 cells (RT-PCR)", "format": "cell-based, mouse", "settings": "50 μM or 100 μM peptide, 24 hours, FIG. 2, FIG. 3A", "description": "as §5, §6"}, "HaCaT cells [4]": {"tested_on": "HaCaT cells", "test": "Antioxidant effect on skin cells induced by ultraviolet rays (reactive oxygen species, flow cytometry)", "format": "cell-based, human", "settings": "15m J/cm2 ultraviolet rays, 50 μM or 100 μM peptide, 24 hours, FIG. 7B", "description": "(§7) In this example, the aim was to confirm the effect of the peptide according to an embodiment on the antioxidant effect of skin cells induced by ultraviolet rays, by evaluating the level of reactive oxygen species in skin cells increased by ultraviolet irradiation.\nas §2, with “6-well” for “96-well”, “5×10^5” for “1×10^4”, “24” for “72”, “After washing” for “The dried culture was then dissolved in 20 mM Tris buffer solution and”, “centrifuged cells with PBS, FL1 fluorescence values were” for “absorbance at 560 nm was”, “through flow cytometry (FACS, BD,” for “using a microplate reader (Molecular Devices,”"}, "aquaporin-3 (AQP3)": {"tested_on": "aquaporin-3 (AQP3)", "test": "Expression of skin barrier factor in HaCaT cells (RT-PCR)", "format": "cell-based, human", "settings": "50 μM or 100 μM peptide, 24 hours, FIG. 4, FIG. 5B", "description": "(§8) In this example, the aim was to confirm the effect of the peptides according to an example on skin barrier defense, by evaluating the expression levels of sirtuin-1 (SIRT-1) or aquaporin-3 (AQP3).\n(§9) Specifically, HaCaT cells were seeded in a 6-well plate at a density of 3×10^5 cells/well and cultured for 24 hours. The cells were then washed once with serum-free DMEM media, and the culture medium was replaced with serum-free DMEM media. Thereafter, 50 μM or 100 μM of the peptide consisting of the amino acid sequence of SEQ ID NO: 1 was dispensed into the medium, and cultured in a CO2 incubator at 37° C. for 24 hours. The culture was then washed twice with PBS, and RNA was isolated from the culture using easy blue (iNtRON, Korea). Using the RT kit (Enzynomics, Korea), 1 ug of the isolated RNA was reverse transcribed to synthesize the respective cDNA. Polymerase chain reaction was then performed using the cDNAs and primers sirtuin-1and aquaporin-3. Meanwhile, the untreated group was used as the control group, and the group to which EGF was added (EGF) was used as the positive control group, the nucleotide sequences of the primers used in this example are shown in Table 3 below."}, "sirtuin-1 (SIRT-1)": {"tested_on": "sirtuin-1 (SIRT-1)", "test": "Expression of skin barrier factor in HaCaT cells (RT-PCR)", "format": "cell-based, human", "settings": "50 μM or 100 μM peptide, 24 hours, FIG. 4, FIG. 5A", "description": "as §8, §9"}, "NIH3T3 cells [5]": {"tested_on": "NIH3T3 cells", "test": "Antioxidant effect on skin cells induced by ultraviolet rays (reactive oxygen species, flow cytometry)", "format": "cell-based, mouse", "settings": "6 J/cm2 ultraviolet rays, 50 μM or 100 μM peptide, 24 hours, FIG. 7A", "description": "as §7\nas §2, with “6-well” for “96-well”, “5×10^5” for “1×10^4”, “24” for “72”, “After washing” for “The dried culture was then dissolved in 20 mM Tris buffer solution and”, “centrifuged cells with PBS, FL1 fluorescence values were” for “absorbance at 560 nm was”, “through flow cytometry (FACS, BD,” for “using a microplate reader (Molecular Devices,”"}, "NIH3T3 cells [6]": {"tested_on": "NIH3T3 cells", "test": "Inhibitory effect on apoptosis of skin cells induced by ultraviolet rays (survival rate, SRB)", "format": "cell-based, mouse", "settings": "6 J/cm2 ultraviolet rays, 50 μM or 100 μM peptide, 72 hours, FIG. 6A", "description": "as §1, §2"}}}
{"sequence": "IHGTYKELLDTVTAP (Peptide 1) [SEQ ID NO: 1]", "values": [{"measurement": "cell survival rate of keratinocytes reduced by ultraviolet irradiation", "setting": "HaCaT cells [1]", "value": "restored"}, {"measurement": "proliferation of fibroblasts", "setting": "NIH3T3 cells [2]", "value": "promoted"}, {"measurement": "proliferation of keratinocytes", "setting": "HaCaT cells [3]", "value": "promoted"}, {"measurement": "expression of elastin", "setting": "elastin", "value": "increased"}, {"measurement": "expression of fibronectin", "setting": "fibronectin", "value": "increased"}, {"measurement": "expression of Col1a1", "setting": "collagen type 1 (Col1a1)", "value": "increased"}, {"measurement": "level of reactive oxygen species in keratinocytes increased by ultraviolet irradiation", "setting": "HaCaT cells [4]", "value": "reduced"}, {"measurement": "expression of AQP3", "setting": "aquaporin-3 (AQP3)", "value": "increased"}, {"measurement": "expression of SIRT-1", "setting": "sirtuin-1 (SIRT-1)", "value": "increased"}, {"measurement": "level of reactive oxygen species in fibroblasts increased by ultraviolet irradiation", "setting": "NIH3T3 cells [5]", "value": "reduced"}, {"measurement": "cell survival rate of fibroblasts reduced by ultraviolet irradiation", "setting": "NIH3T3 cells [6]", "value": "restored"}]}
